Our source for the Activity, IC50 and inhibition values is ChEMBL document CHEMBL3297647, “Biological evaluation of subglutinol a as a novel immunosuppressive agent for inflammation intervention” (ACS Med Chem Lett, 2014).

Molecules are shown by their SMILES. The source made the active and inactive calls. No cut-off for these calls is given here.

The test system of assay [1] is T-cell. Nature of the assay: Induction of apoptosis in pMel-1 TCR transgenic C57BL/6 mouse gp100 (25 to 33)-activated CD8-positive T cells assessed as live divided cells at 100 nM after 48 hrs by CFSE dilution/flow cytometric analysis (reference value: 55.2%). It is filed as functional. In general terms: A flow cytometer gives signals particle by particle.
Assay [2] relates to T-cell. Nature of the assay: Induction of apoptosis in pMel-1 TCR transgenic C57BL/6 mouse gp100 (25 to 33)-activated CD8-positive T cells assessed as dead divided cells at 100 nM after 48 hrs by CFSE dilution/flow cytometric analysis (reference value: 14.7%). It is filed as functional.
Assay [3] relates to T-cell. Nature of the assay: Induction of apoptosis in pMel-1 TCR transgenic C57BL/6 mouse gp100 (25 to 33)-activated CD8-positive T cells assessed as dead undivided cells at 100 nM after 48 hrs by CFSE dilution/flow cytometric analysis (reference value: 6.77%). It is filed as functional.
The subject of assay [4] is T-cell. Nature of the assay: Induction of apoptosis in LLO118 TCR transgenic mouse LLO (190 to 205)-activated CD4-positive T cells assessed as dead undivided cells at 100 nM after 48 hrs by CFSE dilution/flow cytometric analysis (reference value: 14.7%). It is filed as functional.
Assay [5] relates to T-cell. The experiment in a line: Induction of apoptosis in LLO118 TCR transgenic mouse LLO (190 to 205)-activated CD4-positive T cells assessed as live undivided cells at 100 nM after 48 hrs by CFSE dilution/flow cytometric analysis (reference value: 41.6%). It is filed as functional.
Assay [6] relates to T-cell. The experiment in a line: Induction of apoptosis in LLO118 TCR transgenic mouse LLO (190 to 205)-activated CD4-positive T cells assessed as dead divided cells at 100 nM after 48 hrs by CFSE dilution/flow cytometric analysis (reference value: 3.04%). It is filed as functional.
Assay [7] has as its system T-cell. Nature of the assay: Induction of apoptosis in pMel-1 TCR transgenic C57BL/6 mouse gp100 (25 to 33)-activated CD8-positive T cells assessed as live undivided cells at 100 nM after 48 hrs by CFSE dilution/flow cytometric analysis (reference value: 23.4%). It is filed as functional.
The next assay has as its system Lymphocyte. The experiment in a line: Immunosuppressive activity in lymphocytes by MLR assay. It is filed as functional, cell-based.
Assay [8] concerns T-cell. Nature of the assay: Induction of apoptosis in LLO118 TCR transgenic mouse LLO (190 to 205)-activated CD4-positive T cells assessed as live divided cells at 100 nM after 48 hrs by CFSE dilution/flow cytometric analysis (reference value: 40.6%). It is filed as functional.
For assay [9], the system named is Th17. Nature of the assay: Reduction in mitochondrial mass in LLO118 TCR transgenic mouse Th17 cells at 50 to 100 nM for 2 days by MitoTracker Deep Red FM staining-based flow cytometric analysis. It is filed as functional, cell-based.
For assay [10], the system named is T-cell. Nature of the assay: Antiinflammatory activity in LLO118 TCR transgenic mouse IL-2-competent CD4-positive T cells assessed as inhibition of LLO (190 to 205)-induced IL-2 production at 100 nM for 2 days by flow cytometric analysis. It is filed as functional, cell-based.
The test system of assay [11] is BMDC. Nature of the assay: Induction of mitochondrial depolarization in B6 mouse immature BMDC at 100 nM for 1 day by MitoTracker Orange CMTMRos staining-based flow cytometric analysis. It is filed as functional.
Assay [12] relates to Th1. The experiment in a line: Reduction in mitochondrial mass in LLO118 TCR transgenic mouse Th1 cells at 50 to 100 nM for 2 days by MitoTracker Deep Red FM staining-based flow cytometric analysis. It is filed as functional, cell-based.
Assay [13] can be described thus: Antiinflammatory activity in LLO118 TCR transgenic mouse IL-2-competent CD4-positive T cells assessed as inhibition of LLO (190 to 205)-induced IL-2 production at 1 nM for 2 days by flow cytometric analysis relative to control. It is filed as functional. To be noted: T-cell, 48 h.
The subject of assay [14] is Th17. Nature of the assay: Induction of mitochondrial depolarization in LLO118 TCR transgenic mouse Th17 cells treated for 2 days by MitoTracker Orange CMTMRos staining-based flow cytometric analysis. It is filed as functional, cell-based.
Assay [15] concerns BMDC. Nature of the assay: Reduction in mitochondrial mass in B6 mouse immature BMDC at 100 nM for 1 day by MitoTracker Deep Red FM staining-based flow cytometric analysis. It is filed as functional.
Assay [16] deals with Mus musculus. The experiment in a line: Immunosuppressive activity in C57BL/6J mouse KLH-induced delayed-type hypersensitivity model assessed as amelioration of tissue injury at 16 nmol administered on day 7 and 8 post-sensitization measured on day 9. It is filed as functional, organism-based.
The subject of assay [17] is Mus musculus. The experiment in a line: Immunosuppressive activity in C57BL/6J mouse KLH-induced delayed-type hypersensitivity model assessed as alleviation of footpad swelling at 16 nmol administered on day 7 and 8 post-sensitization measured on day 9. It is filed as functional, organism-based.
In assay [18] the test system is Th17. The experiment in a line: Antiinflammatory activity in LLO118 TCR transgenic mouse Th17 cells assessed as inhibition of IL-17 production at 10 to 100 nM for 2 days by flow cytometric analysis. It is filed as functional, cell-based.
For assay [19], the system named is BMDC. Nature of the assay: Reduction in mitochondrial mass in LPS-matured B6 mouse BMDC at 100 nM for 1 day by MitoTracker Deep Red FM staining-based flow cytometric analysis. It is filed as functional.
The test system of assay [20] is Mus musculus. The experiment in a line: Immunosuppressive activity in C57BL/6J mouse KLH-induced delayed-type hypersensitivity model assessed as blockade of lymphocyte accumulation at 16 nmol administered on day 7 and 8 post-sensitization measured on day 9. It is filed as functional, organism-based.
The subject of assay [21] is Th1. Nature of the assay: Induction of mitochondrial depolarization in LLO118 TCR transgenic mouse Th1 cells treated for 2 days by MitoTracker Orange CMTMRos staining-based flow cytometric analysis. It is filed as functional, cell-based.
For assay [22], the system named is BMDC. The experiment in a line: Induction of mitochondrial depolarization in LPS-matured B6 mouse BMDC at 100 nM for 1 day by MitoTracker Orange CMTMRos staining-based flow cytometric analysis. It is filed as functional.
Assay [23] in a line: Immunosuppressive activity in C57Bl/6 mouse lymphocytes assessed as inhibition of cell proliferation co-incubated with BALB/c mouse stimulator lymphocytes after 72 hrs by [3H]-thymidine incorporation assay. To be noted: C57Bl/6, Lymphocyte. It is filed as functional, cell-based. On the technique in general: Incorporation of labelled thymidine or its analogues reports DNA synthesis.

Assay [24] can be described thus: Antiinflammatory activity in LLO118 TCR transgenic mouse Th1 cells assessed as inhibition of IFN-gamma production at 10 nM for 2 days by flow cytometric analysis (reference value: 90%). It is filed as functional. Details: scale not given: the % may be the effect or the level left.

Regarding `C/C=C/C[C@@H](C)[C@@H](O)[C@H]1C(=O)N[C@@H](CC)C(=O)N(C)CC(=O)N(C)[C@@H](CC(C)C)C(=O)N[C@@H](C(C)C)C(=O)N(C)[C@@H](CC(C)C)C(=O)N[C@@H](C)C(=O)N[C@H](C)C(=O)N(C)[C@@H](CC(C)C)C(=O)N(C)[C@@H](CC(C)C)C(=O)N(C)[C@@H](C(C)C)C(=O)N1C` [CYCLOSPORINE], the Activity in the assay on T-cell [1] was found to be 0.68%; in the assay with T-cell [2], 10.8%; in the assay with T-cell [3] it was 86.5%; in the assay on T-cell [4], 86.1%; in the assay with T-cell [5], 1.94%; in the assay with T-cell [6], 10.9%. For the same compound, the Activity was 2.01% with T-cell [7] and 1.02% in the assay on T-cell [8]. This compound came in with an IC50 in the assay on Lymphocyte of 0.089 µM.

On to `C=C1CC[C@H]2[C@]3(C)C[C@@H](C=C(C)C)O[C@H]3CC[C@]2(C)[C@@H]1Cc1c(O)c(C)c(C)oc1=O` [SUBGLUTINOL A], for which the result in the assay on Th17 [9], in the assay with BMDC [11], in the assay on BMDC [15], in the assay on BMDC [19] and in the assay with BMDC [22] was inactive. In addition, the inhibition result with T-cell [10] and with Th17 [18] was “Active” in each case. Moreover, the Activity in the assay on T-cell [1] is 1.04%; with T-cell [2] it was 3.09%; in the assay on T-cell [3], 83.6%; in the assay on T-cell [4] it was 82.6%; in the assay on Th17 [14], “Dose-dependent effect”; in the assay on T-cell [5], 13.4%. The Activity was 3.29% in the assay with T-cell [6]; “Dose-dependent effect” with Th1 [21]; 12.3% in the assay on T-cell [7]; 0.73% with T-cell [8]; <1% in [24]. Also, the result in the assay with Th1 [12], in the assay with Mus musculus [16], with Mus musculus [17] and with Mus musculus [20] was Active. For the same compound, the inhibition at 0.001 µM in assay [13] came out at 50%. Also, the IC50 was 0.025 µM with Lymphocyte and 0.1 µM in [23].

For the compound `C=C1CC[C@H]2[C@]3(C)C[C@H](C=C(C)C)O[C@H]3CC[C@]2(C)[C@@H]1Cc1c(O)c(C)c(C)oc1=O` [SUBGLUTINOL B], the IC50 in assay [23] came to 0.1 µM.

As a reminder, the IC50 is the midpoint of a concentration-inhibition curve. One may read the inhibition as how much of the control response was suppressed.
